Data set [1] concerns the target recombinant equine BChE (butyrylcholinesterase), truncated version devoid of the tetramerization domain, GA-BChE-His, Seq.2, expressed in Leishmania tarentolae (Equus caballus, UniProt Q9N1N9). Briefly: Ellman's method enzymatic activity test (hydrolysis of S-butyrylthiocholine iodide, DTNB, absorbance at 412 nm). Background: Ellman's reagent forms a yellow product with free thiols.

The test system of the next data set is CCCC(=O)SCC[N+](C)(C)C. Put plainly: purified protein, by the assay type. The note with it: pH 7.4; 25.0 °C.

One may read the Km as the substrate concentration at which the rate is half of its maximum.

Consider `CN(C)c1ccc2nc3ccc(=[N+](C)C)cc-3sc2c1` [methylene blue], for which the “BChE activity in the presence of different concentrations of methylene blue” value in data set [1] is “inhibited”.
Regarding “recombinant equine BChE (butyrylcholinesterase), truncated version devoid of the tetramerization domain, GA-BChE-His, Seq.2, expressed in Leishmania tarentolae T7-TR (Equus caballus)”, in the data set on CCCC(=O)SCC[N+](C)(C)C, the Km came to 20 µM.

For the origin of these results see patent publication EP3473709B1, “DNA VECTOR CONTAINING A GENE ENCODING AN EQUINE BUTYRYLCHOLINESTERASE, FOR TRANSFORMATION AND INTEGRATION INTO LEISHMANIA TARENTOLAE CHROMOSOME” (priority 2017, dated 2019).
